Laboratory results from patent US4544740A, “Process for the preparation of 5-(2-bromovinyl)-uridine” (priority 1981, dated 1985).
≈ marks a conversion by molar mass, not a printed value. Where “and” joins values, the source holds several entries; their conditions need not be identical. Equal entries are not always repeated. Entries after “also recorded” stand apart in the source; their conditions may differ. Where two headings read alike, the source gives them in different places.

How the values were obtained:
[1] = Cytotoxicity of nucleoside analogues in HeLa cell cultures; assay type: cell-based; settings: human, hela cells
Text: (§1) Cytotoxicity of nucleoside analogues at concentra-
(§2) tions of CTo and CT50 in various cell cultures in […]

[2] = Cytotoxicity of nucleoside analogues in BHK-21 cell cultures; assay type: cell-based; settings: hamster, bhk-21 cells
Text: as §1, §2

[3] = Cytotoxicity of nucleoside analogues in Vero cell cultures; assay type: cell-based; settings: monkey, vero cells
Text: as §1, §2

[4] = Cytotoxicity of nucleoside analogues in RK-13 cell cultures; assay type: cell-based; settings: rabbit, rk-13 cells
Text: as §1, §2

Herpes simplex virus = settings: literature; cited from earlier work
[5] = system: type 1 Herpes simplex virus; test: Inhibitory effect of nucleoside analogues on multiplication of type 1 Herpes simplex in HeLa cell culture (virus titer, TCID50); assay type: cell-based, Herpes simplex virus type 1; settings: for log TCID50, average: average of individual experiments; for Δ log TCID50, average / Δ log TCID50: difference from control; for antiviral (anti-herpes) effect in words: in vitro, tissue culture
Text: (§3) A method was developed for the testing of the antiviral activity of various drugs in solution which is suitable for the exact, sensitive and objective in vitro assay of drug activity exerted on the cells and tissues of both warm-blooded animals and men [Toxicology 16, 59 (1980)]. The method is also suitable for calculating from the test data the highest concentration of the test drug in the tissue culture medium which is not impairing the tissue yet (CTo).
The difference in the logarithm of virus titers may be considered the objective indicator of the rate of inhibition of virus multiplication.

Herpes simplex type 1 = test: Effect of nucleoside analogues on virus multiplication in cell cultures at concentrations of CTo: Herpes simplex type 1 in HeLa cell culture; assay type: cell-based, Herpes simplex virus type 1
Experimental: The testing of antiviral activity was carried out according to the following considerations:
According to the literature the major part of antiviral nucleoside analogues is presumed to exert its "antiviral potency" by interfering with the functioning of the host cell which as a result fails to promote intracellular virus multiplication (it is a well known fact that virus multiplication requires a well functioning host cell).
Effect of nucleoside analogues on virus multiplica-
tion in cell cultures at concentrations of CTo
^1 = type 1 in HeLa cell culture

tissue culture = test: Comparative toxicity in tissue culture
Text: as §3

Water solubility = assay type: physicochemical; settings: i.v. trial limited
[6] = read-out: CT50 (the source's name) (converted)
[7] = individual experiments, HeLa, concentration of CTo

Experimental for mice: Solvent: 20 percent aqueous dimethylsulfoxide
Acute toxicity after a single dose
/measured after 24 hours/
Dose Number of dead/treated animals

Structure (SMILES): Nc1nc(=O)n([C@H]2C[C@H](O)[C@@H](CO)O2)cc1I [D, 5iodo-2deoxy-cytidine]
- CC50 [1]: 7.94 µg/mL (≈ 22.5 µM)
- MNTC [1]: 0.01 µg/mL

Structure (SMILES): O=c1[nH]c(=O)n([C@H]2C[C@H](O)[C@@H](CO)O2)cc1I [C, 5iodo-2deoxy-uridine]
- CC50 [2]: 6.31 µg/mL (≈ 17.8 µM)
- MNTC [2]: 0.1 µg/mL
- CC50 [3]: 39.8 µg/mL (≈ 112 µM)
- MNTC [3]: 31.6 µg/mL
- CC50 [1]: 20 µg/mL (≈ 56.3 µM)
- MNTC [1]: 0.0398 µg/mL
- CC50 [4]: 79.4 µg/mL (≈ 224 µM)
- MNTC [4]: 5.01 µg/mL

Structure (SMILES): O=c1[nH]c(=O)n([C@H]2C[C@H](O)[C@@H](CO)O2)cc1/C=C/Br [B, (E)-5-(2-bromovinyl)-2'-deoxy-uridine, reference compound]
- MNTC ([2]; BHK-21, highest concentration not impairing the tissue, read-out: CTo (converted)): 316 µg/mL
- CC50 [2, 6]: 794 µg/mL (≈ 2380 µM)
- antiviral / anti-herpes activity in words (Herpes simplex virus): marked anti-herpes potency
- log TCID50, average ([5]; HeLa, concentration of CTo): 2.26
- Δ log TCID50, average ([5]; HeLa, concentration of CTo): 3.53
- antiviral (anti-herpes) effect in words [5]: marked antiviral effect in vitro
- Δ log TCID50 [5, 7]: 3.33 and 3.84 and 3.78 and 3.17
- MNTC ([3]; Vero, highest concentration not impairing the tissue, read-out: CTo (converted)): 39.8 µg/mL
- CC50 [3, 6]: 316 µg/mL (≈ 949 µM)
- MNTC ([1]; HeLa, highest concentration not impairing the tissue, read-out: CTo (converted)): 39.8 µg/mL
- CC50 [1, 6]: 251 µg/mL (≈ 754 µM)
- Effect on virus multiplication, Herpes simpl. (Herpes simplex type 1): ++++
- effect on cells and tissues used for culturing (tissue culture; at concentrations as low as CTo): without impairing the cells and tissues used for culturing
- Number of dead/treated animals (mice; i.p., 500 mg/kg single dose, 24 hours): 0/5
- Number of dead/treated animals (mice; i.p., 750 mg/kg single dose, 24 hours): 2/5
- Number of dead/treated animals (mice; i.p., 1000 mg/kg single dose (aqueous suspension), 24 hours): 5/5
- Number of dead/treated animals (mice; i.v., 300 mg/kg single dose, 24 hours): 1/5
- Number of dead/treated animals (mice; per os, 1000 mg/kg single dose (aqueous suspension), 24 hours): 0/5
- Number of dead/treated animals (mice; per os, 1500 mg/kg single dose (aqueous suspension), 24 hours): 0/5
- MNTC ([4]; RK-13, highest concentration not impairing the tissue, read-out: CTo (converted)): 20 µg/mL
- CC50 [4, 6]: 794 µg/mL (≈ 2380 µM)

Structure (SMILES): O=c1[nH]c(=O)n([C@@H]2O[C@H](CO)[C@@H](O)[C@H]2O)cc1/C=C/Br [A, (E)-5-(2-Bromovinyl)-uridine]
- CC50 [2]: 501 µg/mL (≈ 1440 µM)
- MNTC [2]: 126 µg/mL
- log TCID50, average ([5]; HeLa, concentration of CTo): 2.66
- Δ log TCID50, average ([5]; HeLa, concentration of CTo): 3.16
- antiviral (anti-herpes) effect in words ([5]; listed as (E)-5-(2-Bromovinyl)-uridine): very active in inhibiting the multiplication of type 1 Herpes simplex virus
- antiviral (anti-herpes) effect in words ([5]; listed as (E)-5-(2-bromovinyl)-uridine): marked antiviral effect in vitro; also recorded: significantly reduced
- antiviral (anti-herpes) effect in words ([5]; listed as ribonucleoside of (E)-5-(2-bromovinyl)-uracil base): similarly high anti-herpes potency
- log TCID50 [5, 7]: 2.77 and 2.5 and 3.0 and 2.33
- Δ log TCID50 [5, 7]: 3.23 and 3.33 and 3.25 and 3.0 and 3.16 and 3.17
- CC50 [3]: 398 µg/mL (≈ 1140 µM)
- MNTC [3]: 100 µg/mL
- CC50 [1]: 398 µg/mL (≈ 1140 µM)
- MNTC [1]: 100 µg/mL
- Effect on virus multiplication, Herpes simpl. (Herpes simplex type 1): ++++
- effect on cells and tissues used for culturing (tissue culture): without impairing the cells and tissues used for culturing
- water solubility (Water solubility): poor water solubility
- Number of dead/treated animals (mice; mouse, in vivo, 1000 mg/kg): 0/5
- Number of dead/treated animals (mice; mouse, in vivo, 1500 mg/kg): 0/5
- Number of dead/treated animals (mice; mouse, in vivo, ip, 500 mg/kg): 0/5
- Number of dead/treated animals (mice; mouse, in vivo, ip, 750 mg/kg): 0/5
- Number of dead/treated animals (mice; mouse, in vivo, ip, 1000 mg/kg): 4/5
- Number of dead/treated animals (mice; mouse, in vivo, iv, 300 mg/kg): 0/5
- CC50 [4]: 501 µg/mL (≈ 1440 µM)
- MNTC [4]: 39.8 µg/mL
